Data published in patent US4904697A, “Controlling the growth of certain tumor tissue with chalcone derivatives” (Merrell Dow Pharmaceuticals Inc., priority 1987, dated 1990).
In brackets after ≈: the same amount, converted by molar mass. Where two headings read alike, the source gives them in different places.

Key:
B16 Melanoma [1] = assay: Growth of B16 melanoma in mice (tumor weight); type: in vivo; conditions: for TUMOR GROWTH (Mean ± S.E., n = 10): tumors weighed day 18
Excerpt: (§1) The effect of a chalcone derivative of structure 1 to control the growth of tumor tissue can be assessed in standard animal tumor models, for example, in the following animal tumor modes: (a) L1210 leukemia in mice, (b) EMT6 tumor in Balb/C mice, (c) 7,12-dimethylbenzanthracene-induced (DMBA-induced) mammary tumor in rats, and (d) Morris 7288C or 5123 hepatoma in Buffalo rats.
(§2) (B) Effect of α-methyl-4-Dimethylamino-2',5'-dimethoxychalcone On
(§3) the Growth and Survival of B16 Melanoma Bearing Mice
(§4) 1 × 10^5 B16 melanoma cells/animal were injected (s.c.) or
(§5) (i.p.)? on day 0. Compounds suspended in 5 percent polyvinylpyrrolidone
(§6) (PVP) were administered once daily (i.p. ) from day 1-15. For tumor growt
studies the animals were sacrificed on day 18, the tumors were excised,
and weighed. For survival studies the survival days of each animal was […]

L1210 Leukemia = assay: Survival of L1210 leukemia in mice; type: in vivo
Excerpt: as §1
(C) Effect of α-methyl-4-Dimethylamino-2',5'-dimethoxychalcone
and Other Mitotic Inhibitors on the Survival of L1210 Leukemia in
1 × 10^5 leukemic cells/animal were inoculated (i.p.) on day
zero. The compounds were suspended or dissolved in 5% polyvinylpyrrolidon
(PVP) and administered once daily from day 1-9 (i.p.). The survival of th
animals was noted and average survival was determined.

HeLa cells [2] = assay: Mitotic accumulation (mitotic arrest) of HeLa cells; type: cell-based; conditions: Homo sapiens, read-out: MITOTIC ARREST Minimum Effectice Concentration
Method: Exponentially growing human carcinoma (HeLa) cells are plated at a densit
of 1 × 10^4 cells/well in a 24 well plate. The compounds were
dissolved in dimethylsulfoxide and diluted with complete medium. The cell
were innoculated with the medium containing the test compound either for
hours or 1 hour. For the 1 hour test, the cells were washed twice and
further grown for 18 hours in the presence of drug free medium. The
mitotic cells in the supernatent were collected and were pooled with the
trypsinized cells and cytopreps were made on slides using a
cytocentrifuge. The slides were fixed with Carnoy's solution, stained wit
acetoorcein, and the mitotic index was determined.

B16 Melanoma [3] = assay: Survival of B16 melanoma bearing mice; type: in vivo
Excerpt: as §1, §2, §3, §4, §5, §6
and weighed. For survival studies the survival days of each animal was
noted and average survival was determined.

[4] = tested on: Human Choriotrophoblast Tumor (JAr); assay: Growth of human choriotrophoblast tumor (JAr) in athymic mice; type: in vivo
Excerpt: as §1
(D) Effect of α-methyl-4-Dimethylamino-2',5'-
dimethoxychalcone On the Growth of Human
Choriotrophoblast Tumor (JAr) In Athymic Mice
JAr cells (1.5 × 10^6 cells/animal) were injected (s.c.) on day
zero. The compound, 4dimethylamino-2',5dimethoxychalcone, was suspended i
5 per cent polyvinylpyrrolidone (PVP) and administered (i.p.) once daily
as indicated. At the end of 12 days the animals were sacrificed, tumors

P388 Leukemia = assay: Survival of P388 leukemia bearing mice; type: in vivo
Excerpt: as §1
(A) Effect of α-methyl-4-Dimethylamino-2',5'-dimethoxychalcone
on the Survival of P388 Leukemia Bearing Mice
1 × 10^5 P388 leukemia cells/animal were inoculated (i.p.) on
day zero. Compound was suspended in 5% polyvinylpyrrolidone (PVP) and was
administered (i.p.) once daily from day 1-9. The survival of the animals
was noted and the average survival was determined.

[5] = Experimental Allergic Encephalomyelitis (EAE) in rats; type: in vivo, rats (Lewis strain); conditions: 25.0 mg/kg s.c. once every other day, day 1 through 10
Excerpt: The compounds of structure 1 inhibit the destruction of myelin sheath surrounding the axons of the central nervous system. This myelin destruction is characteristic in those individuals suffering from multiple sclerosis. By preventing the destruction of myelin in multiple sclerosis patients, the compounds of structure 1 will prevent or reduce the progressive nature of the disease, prevent or increase the length of time between the recurrent episodes of the disease, and prevent or suppress the formation of the scarlike, multiple sclerotic plaques characteristic of the disease. […] This myelin brings about an immune response in the individual in which the myelin sheath is destroyed. EAE is an experimental model of multiple sclerosis.
Effect of α-methyl-4-dimethylamino-2',5'-dimethoxychalcone on
Experimental Allergic Encephalomyelitis (EAE) In Rats
EAE was induced in rats as described by Rosenthal and Nagra, Proc. Soc.
Exp. Biol. Med. 125, 149 (1967). Lewis strain rats ranging in weight from
100-200 g were sensitized with encephalitogenic emulsion consisting of
homogenized spinal cord in complete Freund's adjuvant. The test compound
and hydrocortisone (HC) were administered in polyvinylpyrrolidone vehicle
The test compound was administered i.p. once daily from day 1 through day
10. […]
10. The incidence of paralysis was recorded and mean paralysis time was […]

HeLa cells [6] = assay: Growth inhibition of HeLa cells; type: cell-based; conditions: Homo sapiens, 72 h, read-out: GROWTH INHIBITION IC50
Method: For growth inhibition studies, exponentially growing HeLa cells were
incubated at a density of 1 × 10^5 cells/35 mm dish with a
number of dilutions of the test compound in the medium. The plates were
incubated at 37° C. in a CO2 incubation. At the end of 72
hours the cells were collected by trypinization and counted and the […]

[7] = 12.5 mg/kg i.p. once daily day 1-15
[8] = 25 mg/kg i.p. once daily day 1-15
[9] = 50 mg/kg i.p. once daily day 1-15
[10] = 6.25 mg/kg i.p. once daily day 1-9
[11] = 12.5 mg/kg i.p. once daily day 1-9
[12] = 25.0 mg/kg i.p. once daily day 1-9
[13] = 50.0 mg/kg i.p. once daily day 1-9
[14] = 25 mg/kg i.p. once daily, day 1-11
[15] = 25 mg/kg i.p. once daily, day 7-11
[16] = 50 mg/kg i.p. once daily, day 1-11
[17] = 50 mg/kg i.p. once daily, day 7-11
[18] = 25 mg/kg i.p. once daily day 1-9
[19] = 50 mg/kg i.p. once daily day 1-9
[20] = 0.20 mg/kg i.p. once daily day 1-9
[21] = 0.2 mg/kg i.p. once daily day 1-15

Compound: COc1ccc(OC)c(C(=O)C(C)=Cc2ccc(N(C)C)cc2)c1 [1-(2,5-dimethoxyphenyl)-3-[4-(dimethylamino)phenyl]-2-methyl-2-propen-1-one]
- PERCENT INHIBITION (tumor growth) (B16 Melanoma [1]; [7]): 30%
- TUMOR GROWTH (Mean ± S.E., n = 10) (B16 Melanoma [1]; [7]): 4.66 ± 0.56 g
- PERCENT INHIBITION (tumor growth) (B16 Melanoma [1]; [8]): 32%
- TUMOR GROWTH (Mean ± S.E., n = 10) (B16 Melanoma [1]; [8]): 4.5 ± 0.70 g
- PERCENT INHIBITION (tumor growth) (B16 Melanoma [1]; [9]): 45%
- TUMOR GROWTH (Mean ± S.E., n = 10) (B16 Melanoma [1]; [9]): 3.66 ± 0.83 g
- PERCENT T/C (survival) (L1210 Leukemia; [10]): 126%
- SURVIVAL TIME (Mean ± S.E., n = 20) (L1210 Leukemia; [10]): 8.8 ± 0.2 days
- PERCENT T/C (survival) (L1210 Leukemia; [11]): 137%
- SURVIVAL TIME (Mean ± S.E., n = 20) (L1210 Leukemia; [11]): 9.6 ± 0.3 days
- PERCENT T/C (survival) (L1210 Leukemia; [12]): 146%
- SURVIVAL TIME (Mean ± S.E., n = 20) (L1210 Leukemia; [12]): 10.2 ± 0.2 days
- PERCENT T/C (survival) (L1210 Leukemia; [13]): 154%
- SURVIVAL TIME (Mean ± S.E., n = 20) (L1210 Leukemia; [13]): 10.8 ± 0.4 days
- minimal effective concentration (HeLa cells [2]; 1 hour, then washed and grown 18 hours in drug free medium): 0.06 µg/mL
- minimal effective concentration (HeLa cells [2]; 6 hours): 0.0038 µg/mL
- PERCENT T/C (survival) (B16 Melanoma [3]; [7]): 146%
- SURVIVAL (MEAN ± S.E., n = 10) (B16 Melanoma [3]; [7]): 20.4 ± 1.5 days
- PERCENT T/C (survival) (B16 Melanoma [3]; [8]): 183%
- SURVIVAL (MEAN ± S.E., n = 10) (B16 Melanoma [3]; [8]): 25.6 ± 4.8 days
- PERCENT INHIBITION (tumor weight) [4, 14]: 29%
- TUMOR WEIGHT (Means ± S.E., n = 6) [4, 14]: 2.86 ± 0.38 g
- PERCENT INHIBITION (tumor weight) [4, 15]: 21%
- TUMOR WEIGHT (Means ± S.E., n = 6) [4, 15]: 3.19 ± 0.61 g
- PERCENT INHIBITION (tumor weight) [4, 16]: 65%
- TUMOR WEIGHT (Means ± S.E., n = 6) [4, 16]: 1.41 ± 0.32 g
- PERCENT INHIBITION (tumor weight) [4, 17]: 31%
- TUMOR WEIGHT (Means ± S.E., n = 6) [4, 17]: 2.70 ± 0.36 g
- PERCENT T/C (survival) (P388 Leukemia; [18]): 142%
- SURVIVAL TIME (Mean ± S.E., n = 10) (P388 Leukemia; [18]): 16.0 ± 1.5 days
- PERCENT T/C (survival) (P388 Leukemia; [19]): 141%
- SURVIVAL TIME (Mean ± S.E., n = 10) (P388 Leukemia; [19]): 15.8 ± 0.5 days

Compound: C[C@]12CCC(=O)C=C1CC[C@@H]1[C@@H]2[C@@H](O)C[C@@]2(C)[C@H]1CC[C@]2(O)C(=O)CO [HYDROCORTISONE, hydrocortisone]
- PERCENT INCIDENCE OF PARALYSIS [5]: 74%
- PARALYSIS TIME (Mean ± S.E.) ([5]; significant at p < 0.01): 11.0 ± 0.28 days

Compound: CC[C@]1(O)C[C@@H]2CN(CCc3c([nH]c4ccccc34)[C@@](C(=O)OC)(c3cc4c(cc3OC)N(C)[C@H]3[C@@](O)(C(=O)OC)[C@H](OC(C)=O)[C@]5(CC)C=CCN6CC[C@]43[C@@H]65)C2)C1 [VINBLASTINE, vinblastine, reference compound]
- PERCENT T/C (survival) (L1210 Leukemia; [20]): 140%
- SURVIVAL TIME (Mean ± S.E., n = 20) (L1210 Leukemia; [20]): 9.8 ± 0.4 days
- minimal effective concentration (HeLa cells [2]; 6 h): 0.0015 µg/mL
- PERCENT T/C (survival) (B16 Melanoma [3]; [21]): 180%
- SURVIVAL (MEAN ± S.E., n = 10) (B16 Melanoma [3]; [21]): 25.2 ± 2.3 days
- IC50 (HeLa cells [6]): 0.015 µg/mL (≈ 0.0185 µM)

Compound: CC[C@]1(O)C[C@H]2CN(CCc3c([nH]c4ccccc34)[C@@](C(=O)OC)(c3cc4c(cc3OC)N(C=O)[C@H]3[C@@](O)(C(=O)OC)[C@H](OC(C)=O)[C@]5(CC)C=CCN6CC[C@]43[C@@H]65)C2)C1 [VINCRISTINE, vincristine, reference compound]
- PERCENT T/C (survival) (L1210 Leukemia; [20]): 146%
- SURVIVAL TIME (Mean ± S.E., n = 20) (L1210 Leukemia; [20]): 10.2 ± 0.4 days
